The text below walks through data of PMC10669340, “Bioactive Compounds from an Endophytic Pezicula sp. Showing Antagonistic Effects against the Ash Dieback Pathogen” (Biomolecules, 2023).

Values after ≈ are worked out from the molar mass of the structure shown. “Also recorded” adds a separate entry of the source. Read-outs that look alike come from different tables or passages of the source. Bounds are passed on as bounds.

Data set [1] concerns Acinetobacter baumannii DSM 30008. Briefly: Antimicrobial serial dilution assay (MIC). In kind it is cell-based. The note with it: n.i.: no inhibition. The method in brief:
(§1)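 MIC, derived from serial compound dilutions; protocol as previously described.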

For another data set, the system named is Bacillus subtilis DSM 10. As to the kind of experiment: Antimicrobial serial dilution assay (MIC). In kind it is cell-based. The method, boiled down:
as §1

The next data set has as its system Candida albicans DSM1665. Briefly: Antimicrobial serial dilution assay (MIC). The note with it: n.i.: no inhibition. It counts as cell-based. The method in brief: as §1
Data set [2] deals with Chromobacterium violaceum DSM 30191. Briefly: Antimicrobial serial dilution assay (MIC). In kind it is cell-based. The method in brief: as §1
Data set [3] deals with Escherichia coli DSM 1116. Briefly: Antimicrobial serial dilution assay (MIC). In kind it is cell-based. The note with it: n.i.: no inhibition. The method in brief: as §1
In the next data set the test system is Mucor hiemalis DSM 2656. Briefly: Antimicrobial serial dilution assay (MIC). It counts as cell-based. The method, boiled down:
as §1

In data set [4] the test system is Mycobacterium smegmatis ATCC 700084. Briefly: Antimicrobial serial dilution assay (MIC). In kind it is cell-based. To be noted: Mycolicibacterium smegmatis. The method, boiled down:
as §1

The next data set relates to Pichia anomala DSM 6766. Briefly: Antimicrobial serial dilution assay (MIC). To be noted: Hansenula anomala. In kind it is cell-based. The method in brief: as §1
In data set [5] the test system is Pseudomonas aeruginosa PA14. Briefly: Antimicrobial serial dilution assay (MIC). It counts as cell-based. To be noted: n.i.: no inhibition. The method, boiled down: as §1
The test system of data set [6] is Rhodotorula glutinis DSM 10134. As to the kind of experiment: Antimicrobial serial dilution assay (MIC). In kind it is cell-based. The method, boiled down: as §1
Data set [7] deals with Schizosaccharomyces pombe DSM 70572. Briefly: Antimicrobial serial dilution assay (MIC). In kind it is cell-based. The method, boiled down:
as §1

The test system of data set [8] is Staphylococcus aureus DSM 346. As to the kind of experiment: Antimicrobial serial dilution assay (MIC). In kind it is cell-based. The method in brief: as §1
The nature of another data set: MTT cytotoxicity assay. In kind it is cell-based. The note with it: read-out: Cytotoxic activity (IC50). The method, then:
(§2) The in vitro cytotoxicity assay was performed using the MTT (3-(4,5-dimethylthiayol-2-yl)-2,5-diphenyltetrazolium bromide) test in 96-well microtiter plates as previously described.

For data set [9], the system named is H. fraxineus (isolate RH02-T6-B4-2). Briefly: Agar disc diffusion assay. It counts as cell-based, Hymenoscyphus fraxineus. The note with it: for Antifungal activity, inhibition diameter: 6 mm disc, 7 days, 21 °C; for inhibitory effects against H. fraxineus (in words): 50 µg (1) and 20 µg (3) test substance per paper disc. The method, boiled down: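 Sterile paper discs on potato–dextrose agar inoculated with H. fraxineus in 9 cm dishes; nystatin (20 and 50 µg/disc) as positive and methanol (10 µL/disc) as negative control. Plates held at 21 °C for 7 days, then inhibition zone diameters measured.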

Data set [10] has as its system Fraxineus excelsior leaves. As to the kind of experiment: Phytotoxicity leaf puncture assay. To be noted: 1 mg/mL in MeOH, 20 µL on punctured leaves, evaluated after 3 days. The method, then: The phytotoxicity of the compounds 1, 3 and 4 was assessed using the leaf puncture assay as described previously. The other compounds could not be evaluated because of the limited quantity.
For this assay, similar leaves of the same Fraxineus excelsior plant were chosen onto which the compounds were applied. The pure compounds were dissolved at 1 mg/mL in MeOH. Then, 20 µL of test samples were applied to the adaxial sides of leaves that had previously been needle punctured. A total of 20 µL of MeOH in distilled water (4%) was applied on the leaves as the negative control and 1 mg/mL macrocidin A [23] as the positive control. Each treatment was repeated three times and then the leaves were placed on moistened paper filters in petri dishes (diameter 9 cm) to prevent the droplets from drying. The experiment was run in duplicate. Leaves were evaluated for the symptoms after 3 days.

Data set [11] concerns panel of bacteria and fungi. Briefly: Antimicrobial serial dilution assay, whole panel (summary statements). It counts as cell-based. The procedure: The antimicrobial activity (minimum inhibitory concentration, MIC) of the compounds was determined against Acinetobacter baumannii DSM 30008, Bacillus subtilis DSM 10, Chromobacterium violaceum DSM 30191, Escherichia coli DSM 1116, Mycobacterium smegmatis ATCC 700084, Pseudomonas aeruginosa PA14, Staphylococcus aureus DSM 346, Candida albicans DSM1665, Mucor hiemalis DSM 2656, Pichia anomala DSM 6766, Rhodotorula glutinis DSM 10134 and Schizosaccharomyces pombe DSM 70572 in a serial dilution assay as previously described.

The subject of data set [12] is panel of mammalian cell lines. Briefly: MTT cytotoxicity assay, panel (summary statements). In kind it is cell-based. To be noted: 4–6 only KB3.1 and L929. The method, then: as §2
In another data set the test system is Micrococcus luteus. Details: method as in PMID 24529574. To be noted: cited from earlier work.
Data set [13] concerns Mycobacterium diernhoferi. Further details: method as in PMID 24529574. To be noted: cited from earlier work.
In the next data set the test system is Nocardia sp. Details: method as in PMID 24529574. To be noted: cited from earlier work.
Another data set has as its system Nocardioides simplex. Further details: method as in PMID 24529574. To be noted: cited from earlier work.
The test system of a further data set is S. aureus. Details: method as in PMID 24529574. To be noted: cited from earlier work.
Data set [14] concerns methicillin-resistant S. aureus (MRSA) strain N315e. Details: method as in PMID 24529574. To be noted: cited from earlier work.
The mark [15] stands for this setting: 50 µg/paper disc, n.i.: no inhibition.

For `CC=C(Cl)C1=CC(=O)C23CC2C(C)(C)OC3(O)C1=O` (centres unmarked) [Compound 3, Mycorrhizin A], the “Minimum inhibitory concentration (MIC)” value in [1], in data set [3] and in [5] was “n.i” in each case. Also, the MIC in the data set with Bacillus subtilis DSM 10 (DSM10, Bacillus subtilis DSM 10, n.i.: no inhibition, read-out: Minimum inhibitory concentration (MIC)) was 66.6 µg/mL (≈ 236 µM); with Candida albicans DSM1665 (read-out: Minimum inhibitory concentration (MIC)) it was 66.6 µg/mL (≈ 236 µM); in data set [2] (DSM30191, n.i.: no inhibition, read-out: Minimum inhibitory concentration (MIC)) it was 66.6 µg/mL (≈ 236 µM); with Mucor hiemalis DSM 2656 (DSM2656, Mucor hiemalis DSM 2656, n.i.: no inhibition, read-out: Minimum inhibitory concentration (MIC)) it was 4.2 µg/mL (≈ 14.9 µM); in [4] (ATCC700084, Mycobacterium smegmatis ATCC 700084, n.i.: no inhibition, read-out: Minimum inhibitory concentration (MIC)) it was 66.6 µg/mL (≈ 236 µM); with Pichia anomala DSM 6766 (DSM6766, Pichia anomala DSM 6766, n.i.: no inhibition, read-out: Minimum inhibitory concentration (MIC)) it was 16.6 µg/mL (≈ 58.7 µM). In addition, the MIC turned out to be 8.3 µg/mL (≈ 29.4 µM) in data set [6] (DSM10134, Rhodotorula glutinis DSM 10134, n.i.: no inhibition, read-out: Minimum inhibitory concentration (MIC)); 33.3 µg/mL (≈ 118 µM) in [7] (DSM70572, Schizosaccharomyces pombe DSM 70572, n.i.: no inhibition, read-out: Minimum inhibitory concentration (MIC)); 66.6 µg/mL (≈ 236 µM) in data set [8] (DSM346, Staphylococcus aureus DSM 346, n.i.: no inhibition, read-out: Minimum inhibitory concentration (MIC)). Besides, the IC50 in “MTT cytotoxicity assay” (human, A431 squamous cell carcinoma cells) is 1 µM; in “MTT cytotoxicity assay” (human, A549 lung carcinoma cells), 22 µM; in the data set “MTT cytotoxicity assay” (human, KB3.1 endocervical adenocarcinoma cells, n.c.: no cytotoxicity), 11 µM; in “MTT cytotoxicity assay” (human, MCF-7 breast adenocarcinoma cells) it was 0.64 µM; in “MTT cytotoxicity assay” (human, PC-3 prostate cancer cells), 11 µM; in the data set “MTT cytotoxicity assay” (human, SKOV-3 ovarian carcinoma cells), 2.4 µM. Further, the IC50 in “MTT cytotoxicity assay” (mouse, L929 fibroblast cells, n.c.: no cytotoxicity) amounted to 3.2 µM. For the same compound, the entries for the “Antifungal activity, inhibition diameter” value in data set [9] (20 µg/paper disc) and in data set [9] (setting [15]) were 19 mm and 31 mm, respectively. Further, in [9], the “inhibitory effects against H. fraxineus (in words)” value was “strong inhibitory effects”. Also, the “phytotoxic activity, leaf puncture assay” value in data set [10] is given as “brownish lesions; also recorded: most phytotoxic effects”. Further, the “antimicrobial activity against the tested microorganisms (in words)” value in [11] is given as “moderate to weak antifungal activity”. The “cytotoxicity against the tested cell lines (in words)” value in data set [12] is “active against all the tested cell lines”.
On to `C[C@H]1CC[C@H]2[C@@H](C=C[C@H](C)[C@]2(C)C(=O)C2=C(O)[C@H]([C@@H](C)O)N(C)C2=O)C1` [Compound 1, CJ-17,572], for which the “Minimum inhibitory concentration (MIC)” value (in data set [1]; with Candida albicans DSM1665; in data set [2] (n.i.: no inhibition); in [3]; in [5]) was “n.i” each time. Also, the MIC in the data set on Bacillus subtilis DSM 10 (Bacillus subtilis, DSM10, read-out: Minimum inhibitory concentration (MIC)) worked out at 8.3 µg/mL (≈ 23 µM); in the data set on Mucor hiemalis DSM 2656 (Mucor hiemalis, DSM2656, read-out: Minimum inhibitory concentration (MIC)), 4.2 µg/mL (≈ 11.6 µM); in [4] (ATCC700084, read-out: Minimum inhibitory concentration (MIC)), 66.6 µg/mL (≈ 184 µM); in the data set on Pichia anomala DSM 6766 (DSM6766, read-out: Minimum inhibitory concentration (MIC)), 33.3 µg/mL (≈ 92.1 µM); in [6] (Rhodotorula glutinis, DSM10134, read-out: Minimum inhibitory concentration (MIC)), 66.6 µg/mL (≈ 184 µM); in data set [7] (Schizosaccharomyces pombe, DSM70572, read-out: Minimum inhibitory concentration (MIC)), 33.3 µg/mL (≈ 92.1 µM). Besides, the MIC in [8] (Staphylococcus aureus, DSM346, read-out: Minimum inhibitory concentration (MIC)) was 8.3 µg/mL (≈ 23 µM). Also, the IC50 worked out at 23 µM in the data set “MTT cytotoxicity assay” (human, A431); 4.4 µM in the data set “MTT cytotoxicity assay” (human, A549); 2.5 µM in “MTT cytotoxicity assay” (human, KB3.1, n.c.: no cytotoxicity); 2.7 µM in “MTT cytotoxicity assay” (human, MCF-7); 3.3 µM in the data set “MTT cytotoxicity assay” (human, PC-3); 3.3 µM in “MTT cytotoxicity assay” (human, SKOV-3). Also, the IC50 in “MTT cytotoxicity assay” (mouse, L929, n.c.: no cytotoxicity) stood at 5 µM. Also, the entries for the “Antifungal activity, inhibition diameter” value in [9] (20 µg/paper disc) and in data set [9] (setting [15]) were 9 mm and 11 mm, respectively. The “inhibitory effects against H. fraxineus (in words)” value in data set [9] is “strong inhibitory effects”. In data set [10], the “phytotoxic activity, leaf puncture assay” value is “brownish lesions”. Moreover, the “antimicrobial activity against the tested microorganisms (in words)” value in [11] is reported as “moderate to weak antifungal activity”. In addition, in [12], the “cytotoxicity against the tested cell lines (in words)” value is “active against all the tested cell lines”.
`C/C=C/[C@@H]1C(C)=C[C@@H]2C[C@H](C)CC[C@H]2[C@]1(C)/C(O)=C1\C(=O)N[C@@H]([C@@H](C)O)C1=O` [hymenosetin]: the MIC (in the data set on Micrococcus luteus; in data set [13]; in the data set with Nocardia sp.; with Nocardioides simplex; in the data set with S. aureus; in [14]) was no more than 1.0 µg/mL each time.
